Experimental data: patent US20150094328A1, “4-Azaindole Derivatives” (Eisai R&D Management Co., Ltd., priority 2013, published 2015)

biological target: T1, mAChR M1 (UniProt P11229); assay: In vitro cellular calcium flux assay, positive allosteric modulator mode, mAChR M1; assay type: cell-based, human; settings: PAM mode with EC20 carbachol, BHK cells expressing mAChR M1, Examples 76-80 and 82-89 tested in slightly modified procedure
T1 sequence (P11229 1-460): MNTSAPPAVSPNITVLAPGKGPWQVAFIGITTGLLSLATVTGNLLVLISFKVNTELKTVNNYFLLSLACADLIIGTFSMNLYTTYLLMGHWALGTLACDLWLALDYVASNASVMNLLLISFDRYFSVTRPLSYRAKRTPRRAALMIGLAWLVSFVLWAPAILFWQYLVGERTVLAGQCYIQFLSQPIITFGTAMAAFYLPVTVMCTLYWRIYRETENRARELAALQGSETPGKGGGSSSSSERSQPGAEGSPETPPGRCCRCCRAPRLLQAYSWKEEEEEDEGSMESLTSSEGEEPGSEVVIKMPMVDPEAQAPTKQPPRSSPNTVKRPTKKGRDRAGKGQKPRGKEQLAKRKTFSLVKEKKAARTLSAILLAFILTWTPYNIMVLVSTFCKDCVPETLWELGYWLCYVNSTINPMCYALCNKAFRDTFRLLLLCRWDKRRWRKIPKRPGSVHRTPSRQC
Description: Baby hamster kidney cells stably expressing human or rat mAChR M1 to M5 were utilised for primary and selectivity profiling activities. mAChR M2 and M4 cell lines also stably expressed the chimeric Gαqi5 G-protein.
Human mAChR M1, M3, M5 and rat M1 cells were grown in low glucose Dulbecco's Modified Eagle's Medium (DMEM) medium plus heat inactivated 10% fetal bovine serum (HI FBS) and 500 μg/ml hygromycin B^1. Human mAChR M2 and M4 cells were maintained as above with^2 the addition of 500 μg/ml G418 to the media. Cells were maintained in culture at 37° C./5% CO2 and passaged twice weekly by treatment with 0.05% Trypsin/EDTA detachment solution, centrifugation (200 g, 5 min) and re-suspension in fresh media. Following cell expansion, cells were cryopreserved at −80° C. by treatment with 0.05% Trypsin/EDTA detachment solution, centrifugation (200 g, 5 min) and re-suspension of the pellet in freezing media (90% HI FBS/10% DMSO^3) at 15E6 cells/ml^4.
Prior to assaying, cells were prepared by thawing at 37° C. in a water bath, centrifugation (200 g, 5 min) and re-suspension of the pellet in fresh media. 15000 cells per well were seeded in black, clear bottomed 384-well Greiner Bio-One plates in plating medium (DMEM/10% HI FBS) and incubated overnight at 37C/5% CO2.
On the day of the assay, media was removed from each well and replaced with 500 assay buffer (HBSS with 20 mM HEPES and 2.5 mM Probenecid) containing the calcium indicator, Calcium 4 (Molecular Devices). Cells were then incubated at 37° C./5% CO2 for 30 min and at room temperature.
Compound preparation was carried out by generation of 11-point, 1 in 3 serial dilution concentration response curves in 100% DMSO. Compound was then diluted 1 in 65^6 with assay buffer (HBSS with 20 mM HEPES and 2.5 mM Probenecid) prior to the addition of 10 ul^7 to the cells using a Tetra fluorometric imaging plate reader (Molecular Devices)^8. Compound driven increases in intracellular calcium flux was measured as an increase in fluorescence (494Ex, 516Em)^9.
Following agonist data acquisition, cells were then incubated for a further 30 min at room temperature before either an EC20 concentration (to measure positive allosteric modulator activity) or an EC80 concentration (to measure antagonism) of carbachol was added using a fluorometric imaging plate reader. Positive allosteric modulator pEC50 values and antagonist pIC50 values for each compound were then determined. […] Data analysis was carried out using a 4 parameter logistic nonlinear regression model with the XLFIT (IDBS) excel add-in^10.
^1-10Examples 76-80 and 82-89 were tested in a slightly modified procedure. The points of modification and the alternate reagents, concentrations or equipment employed in these examples were: ^1200 μg/ml hygromycin B; ^2G418 not added; ^3CELLBANKER 1; ^410E6; ^540 μl; ^61 in 99; ^720 μl; ^8FDSS6000 (Hamamatsu Photonics); ^9(480Ex, 540Em); 10Spotfire (TIBCO).

Row | Structure (SMILES) | pEC50 for positive allosteric modulation
1 | O=C(N[C@H]1CCCC[C@@H]1CO)c1cn(Cc2ccc(F)cc2)c2cccnc12 (racemic) [Example 18, 1-(4-Fluorobenzyl)-N-(trans-2-(hydroxymethyl)cyclohexyl)-1H-pyrrolo[3,2-b]pyridine-3-carboxamide] | 6.1
2 | C[C@H]1COCC[C@@H]1NC(=O)c1cn(Cc2ccc(F)cc2)c2cccnc12 (racemic) [Example 19, 1-(4-Fluorobenzyl)-N-(trans-3-methyltetrahydro-2H-pyran-4-yl)-1H-pyrrolo[3,2-b]pyridine-3-carboxamide] | 6.0
3 | C[C@H]1CCCC[C@@H]1NC(=O)c1cn(Cc2ccc(F)cc2)c2cccnc12 (racemic) [Example 20, 1-(4-Fluorobenzyl)-N-(trans-2-methylcyclohexyl)-1H-pyrrolo[3,2-b]pyridine-3-carboxamide] | 6.1
4 | O=C(N[C@H]1CCC[C@@H]1O)c1cn(Cc2ccc(F)cc2)c2cccnc12 (racemic) [Example 27, 1-(4-Fluorobenzyl)-N-(trans-2-hydroxycyclopentyl)-1H-pyrrolo[3,2-b]pyridine-3-carboxamide] | 6.1
5 | O=C(N[C@H]1CCCCC[C@@H]1O)c1cn(Cc2ccc(F)cc2)c2cccnc12 (racemic) [Example 28, 1-(4-Fluorobenzyl)-N-(trans-2-hydroxycycloheptyl)-1H-pyrrolo[3,2-b]pyridine-3-carboxamide] | 6.6
6 | O=C(N[C@@H]1CCCC[C@H]1O)c1cn(Cc2ccc(-c3ccc(F)cc3)cc2)c2cccnc12 (racemic) [Example 46, 1-((4′-Fluoro-[1,1′-biphenyl]-4-yl)methyl)-N-(trans-2-hydroxycyclohexyl)-1H-pyrrolo[3,2-b]pyridine-3-carboxamide] | 6.5
7 | O=C(NC1CCCOC1)c1cn(Cc2ccc(-n3cccn3)cc2)c2cccnc12 (racemic) [Example 49, 1-(4-(1H-Pyrazol-1-yl)benzyl)-N-(tetrahydro-2H-pyran-3-yl)-1H-pyrrolo[3,2-b]pyridine-3-carboxamide] | 5.6
8 | O=C(N[C@@H]1CCC(F)(F)C[C@H]1O)c1cn(Cc2ccc(F)cc2)c2cccnc12 (single isomer, unassigned) [Example 35, N-(trans-4,4-Difluoro-2-hydroxycyclohexyl)-1-(4-fluorobenzyl)-1H-pyrrolo[3,2-b]pyridine-3-carboxamide] | 6.1
9 | O=C(N[C@H]1CCC(F)(F)C[C@H]1O)c1cn(Cc2ccc(F)cc2)c2cccnc12 (single isomer, unassigned) [Example 36, N-(cis-4,4-Difluoro-2-hydroxycyclohexyl)-1-(4-fluorobenzyl)-1H-pyrrolo[3,2-b]pyridine-3-carboxamide] | 6.3
10 | Cc1ccnc2c(C(=O)N[C@H]3CCOC[C@@H]3O)cn(Cc3ccc(F)cc3)c12 (single isomer, unassigned) [Example 82, 1-(4-Fluorobenzyl)-N-(trans-3-hydroxytetrahydro-2H-pyran-4-yl)-7-methyl-1H-pyrrolo[3,2-b]pyridine-3-carboxamide] | 7.8
11 | COc1ccc(Cn2cc(C(=O)N[C@H]3CCOC[C@@H]3O)c3nccc(C)c32)cc1 (single isomer, unassigned) [Example 83, 1-(4-Methoxybenzyl)-N-(trans-3-hydroxytetrahydro-2H-pyran-4-yl)-7-methyl-1H-pyrrolo[3,2-b]pyridine-3-carboxamide] | 8.0
12 | COc1ccc(Cn2cc(C(=O)N[C@H]3CCOC[C@@H]3O)c3nccc(C)c32)cc1F (single isomer, unassigned) [Example 84, 1-(3-Fluoro-4-methoxybenzyl)-N-(trans-3-hydroxytetrahydro-2H-pyran-4-yl)-7-methyl-1H-pyrrolo[3,2-b]pyridine-3-carboxamide] | 7.9
13 | COc1cc(Cn2cc(C(=O)N[C@H]3CCOC[C@@H]3O)c3nccc(C)c32)ccn1 (single isomer, unassigned) [Example 85, N-(trans-3-Hydroxytetrahydro-2H-pyran-4-yl)-1-((2-methoxypyridin-4-yl)methyl)-7-methyl-1H-pyrrolo[3,2-b]pyridine-3-carboxamide] | 7.3
14 | O=C(N[C@@H]1CCOC[C@H]1O)c1cn(Cc2cccc(F)c2)c2c(Cl)ccnc12 (single isomer, unassigned) [Example 86, 7-Chloro-1-(3-fluorobenzyl)-N-(trans-3-hydroxytetrahydro-2H-pyran-4-yl)-1H-pyrrolo[3,2-b]pyridine-3-carboxamide] | 7.6
15 | COc1ccc(Cn2cc(C(=O)N[C@H]3CCOC[C@@H]3O)c3nccc(Cl)c32)cc1 (single isomer, unassigned) [Example 87, 7-Chloro-1-(4-methoxybenzyl)-N-(trans-3-hydroxytetrahydro-2H-pyran-4-yl)-1H-pyrrolo[3,2-b]pyridine-3-carboxamide] | 7.9
16 | N#Cc1ccnc2c(C(=O)N[C@H]3CCCC[C@@H]3O)cn(Cc3ccc(C(F)(F)F)cc3)c12 [Example 33, 7-Cyano-N-((1S,2S)-2-hydroxycyclohexyl)-1-(4-(trifluoromethyl)benzyl)-1H-pyrrolo[3,2-b]pyridine-3-carboxamide] | 7.0
17 | N#Cc1ccc2c(n1)c(C(=O)N[C@H]1CCCC[C@@H]1O)cn2Cc1ccc(-n2cccn2)cc1 [Example 41, 1-(4-(1H-Pyrazol-1-yl)benzyl)-5-cyano-N-((1S,2S)-2-hydroxycyclohexyl)-1H-pyrrolo[3,2-b]pyridine-3-carboxamide] | 6.5
18 | Cn1cnc(-c2ccc(Cn3cc(C(=O)N[C@H]4CCCC[C@@H]4O)c4ncccc43)cc2)c1 [Example 43, N-((1S,2S)-2-Hydroxycyclohexyl)-1-(4-(1-methyl-1H-imidazol-4-yl)benzyl)-1H-pyrrolo[3,2-b]pyridine-3-carboxamide] | 8.0
19 | N#Cc1ccc(Cn2cc(C(=O)N[C@H]3CCCC[C@@H]3O)c3nccc(Cl)c32)cn1 [Example 70, 7-Chloro-1-((6-cyanopyridin-3-yl)methyl)-N-((1S,2S)-2-hydroxycyclohexyl)-1H-pyrrolo[3,2-b]pyridine-3-carboxamide] | 7.0
20 | O=C(N[C@H]1CCCC[C@@H]1O)c1cn(Cc2ccc(F)c(F)c2)c2cccnc12 [Example 94, 1-(3,4-difluorobenzyl)-N-((1S,2S)-2-hydroxycyclohexyl)-1H-pyrrolo[3,2-b]pyridine-3-carboxamide] | 6.6
